Earlier results on one compound are cited in patent publication US20110105443A1, “SALTS OF MEMANTINE AND COX-INHIBITORS AND THEIR CRYSTAL FORM IN THE TREATMENT OF PAIN” (LABORATORIES DEL DR. ESTEVE, S.A., priority 2008, published 2011).

The conditions of the series: stated property of the free drug (base or acid), no method given.

A word on the pKa: it is the pH at which an ionisable group is half protonated. Regarding `CC(=O)Oc1cc(C(F)(F)F)ccc1C(=O)O` [Triflusal, 2-acetoxy-4-trifluoromethyl-benzoic acid], the pKa is 3.34.
